Article PMC10021017 (Journal of the American Chemical Society, 2023)

Key:
[1] = biological target: T1, HydB (HydABCTk, electron-bifurcating [FeFe]-hydrogenase) (Thermoanaerobacter kivui, UniProt A0A097ATG4); assay: cryoEM; type: binding
T1 sequence (A0A097ATG4 1-630): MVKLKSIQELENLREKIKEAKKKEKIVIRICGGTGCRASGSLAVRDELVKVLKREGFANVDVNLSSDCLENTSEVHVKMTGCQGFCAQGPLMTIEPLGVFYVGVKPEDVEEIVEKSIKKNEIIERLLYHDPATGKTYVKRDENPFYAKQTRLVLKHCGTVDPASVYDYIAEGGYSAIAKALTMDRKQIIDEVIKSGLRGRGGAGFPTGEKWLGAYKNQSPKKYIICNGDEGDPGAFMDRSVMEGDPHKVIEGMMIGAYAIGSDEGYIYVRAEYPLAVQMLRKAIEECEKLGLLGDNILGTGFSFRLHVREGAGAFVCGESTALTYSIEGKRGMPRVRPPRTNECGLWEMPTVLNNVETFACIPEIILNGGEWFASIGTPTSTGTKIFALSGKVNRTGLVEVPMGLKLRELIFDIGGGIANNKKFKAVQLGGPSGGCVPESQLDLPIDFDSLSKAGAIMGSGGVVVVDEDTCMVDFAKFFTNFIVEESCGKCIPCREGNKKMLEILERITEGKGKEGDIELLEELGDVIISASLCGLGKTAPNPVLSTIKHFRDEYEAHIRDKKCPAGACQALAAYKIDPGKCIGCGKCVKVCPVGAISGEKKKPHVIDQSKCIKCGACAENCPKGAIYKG
T1 sequence (A0A097ATG3 1-571 partner): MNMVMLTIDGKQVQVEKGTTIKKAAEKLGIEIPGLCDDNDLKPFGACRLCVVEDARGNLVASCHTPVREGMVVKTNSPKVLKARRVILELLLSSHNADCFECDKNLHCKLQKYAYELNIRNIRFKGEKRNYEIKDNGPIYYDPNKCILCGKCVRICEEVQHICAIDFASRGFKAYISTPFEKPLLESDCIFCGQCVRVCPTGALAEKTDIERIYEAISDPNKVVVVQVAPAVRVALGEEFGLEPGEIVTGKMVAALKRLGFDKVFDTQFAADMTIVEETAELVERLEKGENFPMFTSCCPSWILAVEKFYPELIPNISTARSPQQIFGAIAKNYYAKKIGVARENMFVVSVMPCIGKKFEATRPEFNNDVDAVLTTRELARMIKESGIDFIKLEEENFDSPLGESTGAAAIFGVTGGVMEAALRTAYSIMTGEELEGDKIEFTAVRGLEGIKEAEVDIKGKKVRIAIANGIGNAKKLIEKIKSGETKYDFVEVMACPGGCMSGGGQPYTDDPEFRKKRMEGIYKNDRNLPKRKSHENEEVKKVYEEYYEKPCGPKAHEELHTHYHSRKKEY
T1 sequence (A0A097ATI0 1-170 partner): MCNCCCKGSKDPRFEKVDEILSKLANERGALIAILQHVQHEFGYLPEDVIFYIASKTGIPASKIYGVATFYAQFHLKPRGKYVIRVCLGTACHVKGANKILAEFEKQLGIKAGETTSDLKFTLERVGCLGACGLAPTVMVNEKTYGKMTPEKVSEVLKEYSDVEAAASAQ

[2] = biological target: HydB (ΔB2-HydABCTk) (Thermoanaerobacter kivui, UniProt A0A097ATG4, C82G/C86G)
[3] = biological target: HydABC heterotrimer (protomer) of the electron-bifurcating [FeFe]-hydrogenase from Thermoanaerobacter kivui (Thermoanaerobacter kivui); assay: cryo-EM structure
[4] = biological target: T2, HydB subunit of the electron-bifurcating [FeFe]-hydrogenase HydABC from Thermoanaerobacter kivui (Thermoanaerobacter kivui, UniProt A0A097ATG4 1-630); assay: cryo-EM structure
T2 sequence: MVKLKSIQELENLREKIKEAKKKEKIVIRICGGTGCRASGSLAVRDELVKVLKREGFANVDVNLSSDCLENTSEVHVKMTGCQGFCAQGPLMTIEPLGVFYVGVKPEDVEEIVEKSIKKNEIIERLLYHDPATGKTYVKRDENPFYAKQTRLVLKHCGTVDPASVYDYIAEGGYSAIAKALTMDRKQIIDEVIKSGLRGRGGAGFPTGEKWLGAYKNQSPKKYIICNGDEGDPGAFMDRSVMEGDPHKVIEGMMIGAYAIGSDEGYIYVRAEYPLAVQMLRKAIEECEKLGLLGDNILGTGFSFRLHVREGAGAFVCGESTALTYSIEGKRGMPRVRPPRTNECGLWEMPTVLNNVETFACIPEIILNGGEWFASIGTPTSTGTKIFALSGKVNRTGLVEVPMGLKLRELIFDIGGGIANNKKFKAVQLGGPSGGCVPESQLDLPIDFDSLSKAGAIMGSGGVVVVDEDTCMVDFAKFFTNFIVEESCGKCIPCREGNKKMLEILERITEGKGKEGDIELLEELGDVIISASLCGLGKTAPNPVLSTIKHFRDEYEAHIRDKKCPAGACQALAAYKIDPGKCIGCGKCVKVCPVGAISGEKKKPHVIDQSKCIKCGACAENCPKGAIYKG

With `Cc1cc2nc3c(=O)[nH]c(=O)nc-3n(C[C@H](O)[C@H](O)[C@H](O)COP(=O)(O)O)c2cc1C` [FMN] the “cryoEM (reduced 3.12 A; oxidized 3.49 A, 8BEW); TLC of bound flavin” value [1] was “modified Rossmann fold with four (instead of six) β-sheets that noncovalently bind the FMN cofactor in a solvent-accessible cavity”.

For `NC(=O)c1ccc[n+]([C@@H]2O[C@H](COP(=O)(O)OP(=O)(O)OC[C@H]3O[C@@H](n4cnc5c(N)ncnc54)[C@H](OP(=O)(O)O)[C@@H]3O)[C@@H](O)[C@H]2O)c1` [NADP^+], the Kd [2] was 65 to 71 µM.

Work on “HydABC heterotrimer (protomer) of the electron-bifurcating [FeFe]-hydrogenase from Thermoanaerobacter kivui (from UniProt A0A097ATG4 1-630; A0A097ATI0 1-170) (complex)” yielded a stoichiometry N [3] of 2.

B1: HydC subunit of the electron-bifurcating [FeFe]-hydrogenase HydABC from Thermoanaerobacter kivui (natural protein)
chain: MCNCCCKGSKDPRFEKVDEILSKLANERGALIAILQHVQHEFGYLPEDVIFYIASKTGIPASKIYGVATFYAQFHLKPRGKYVIRVCLGTACHVKGANKILAEFEKQLGIKAGETTSDLKFTLERVGCLGACGLAPTVMVNEKTYGKMTPEKVSEVLKEYSDVEAAASAQ
B1: binds [4].
